Experiments:
BRM = molecular target: T1, BRM (Homo sapiens, UniProt P51531); assay: ATPase catalytic activity of BRM, ADP-Glo in vitro biochemical assay; details: ATPase catalytic activity, 30 nM BRM, 400 μM ATP, read-out: BRM IP50
T1 construct: made in house; host or cells: High Five insect cells

BRG-1 = molecular target: T2, BRG-1 (Homo sapiens, UniProt P51532); assay: ATPase catalytic activity of BRG-1, ADP-Glo in vitro biochemical assay; details: ATPase catalytic activity, 30 nM BRG-1, 400 μM ATP, read-out: BRG1 IP50
T2 construct: made in house; host or cells: High Five insect cells
T2 sequence (P51532 whole entry): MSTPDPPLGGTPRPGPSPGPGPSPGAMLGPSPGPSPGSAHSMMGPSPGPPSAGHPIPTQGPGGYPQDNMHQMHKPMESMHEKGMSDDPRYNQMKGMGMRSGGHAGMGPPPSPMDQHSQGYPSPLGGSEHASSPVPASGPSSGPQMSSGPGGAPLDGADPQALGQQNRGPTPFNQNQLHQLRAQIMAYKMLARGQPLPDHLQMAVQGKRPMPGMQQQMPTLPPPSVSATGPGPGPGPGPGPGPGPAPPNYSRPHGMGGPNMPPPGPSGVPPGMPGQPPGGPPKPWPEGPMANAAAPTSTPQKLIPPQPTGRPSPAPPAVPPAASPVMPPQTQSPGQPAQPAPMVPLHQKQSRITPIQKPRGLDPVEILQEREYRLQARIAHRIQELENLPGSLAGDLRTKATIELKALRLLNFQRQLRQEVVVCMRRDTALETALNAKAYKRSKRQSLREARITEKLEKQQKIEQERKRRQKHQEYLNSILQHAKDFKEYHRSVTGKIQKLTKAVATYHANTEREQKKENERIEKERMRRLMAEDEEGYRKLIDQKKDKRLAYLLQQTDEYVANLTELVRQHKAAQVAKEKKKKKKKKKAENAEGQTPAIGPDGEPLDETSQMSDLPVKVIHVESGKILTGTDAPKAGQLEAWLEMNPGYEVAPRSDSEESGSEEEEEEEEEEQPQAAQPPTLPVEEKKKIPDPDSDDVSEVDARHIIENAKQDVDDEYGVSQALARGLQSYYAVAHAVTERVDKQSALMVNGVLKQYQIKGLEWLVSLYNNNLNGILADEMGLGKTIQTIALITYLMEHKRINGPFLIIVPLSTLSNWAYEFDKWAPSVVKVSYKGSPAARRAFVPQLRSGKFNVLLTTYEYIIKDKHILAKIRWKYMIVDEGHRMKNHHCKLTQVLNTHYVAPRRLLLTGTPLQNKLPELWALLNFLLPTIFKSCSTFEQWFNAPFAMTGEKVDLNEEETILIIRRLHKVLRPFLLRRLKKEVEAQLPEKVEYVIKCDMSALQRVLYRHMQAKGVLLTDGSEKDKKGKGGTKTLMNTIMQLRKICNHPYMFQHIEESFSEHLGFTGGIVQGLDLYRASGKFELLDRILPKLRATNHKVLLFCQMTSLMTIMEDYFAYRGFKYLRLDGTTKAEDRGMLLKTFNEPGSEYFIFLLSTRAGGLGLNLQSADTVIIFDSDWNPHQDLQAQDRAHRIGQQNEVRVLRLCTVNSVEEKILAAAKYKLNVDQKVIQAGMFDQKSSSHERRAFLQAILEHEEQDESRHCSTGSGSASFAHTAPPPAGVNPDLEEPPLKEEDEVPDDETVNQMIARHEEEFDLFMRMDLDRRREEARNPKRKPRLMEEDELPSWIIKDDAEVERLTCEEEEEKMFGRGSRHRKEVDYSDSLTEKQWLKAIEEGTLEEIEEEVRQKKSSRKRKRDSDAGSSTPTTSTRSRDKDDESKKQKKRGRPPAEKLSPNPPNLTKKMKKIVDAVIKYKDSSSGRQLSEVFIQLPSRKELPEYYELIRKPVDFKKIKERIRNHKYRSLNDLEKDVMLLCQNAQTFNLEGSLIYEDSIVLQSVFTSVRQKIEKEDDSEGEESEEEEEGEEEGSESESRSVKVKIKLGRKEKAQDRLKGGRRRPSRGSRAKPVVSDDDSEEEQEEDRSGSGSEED

T1 sequence (P51531 whole entry): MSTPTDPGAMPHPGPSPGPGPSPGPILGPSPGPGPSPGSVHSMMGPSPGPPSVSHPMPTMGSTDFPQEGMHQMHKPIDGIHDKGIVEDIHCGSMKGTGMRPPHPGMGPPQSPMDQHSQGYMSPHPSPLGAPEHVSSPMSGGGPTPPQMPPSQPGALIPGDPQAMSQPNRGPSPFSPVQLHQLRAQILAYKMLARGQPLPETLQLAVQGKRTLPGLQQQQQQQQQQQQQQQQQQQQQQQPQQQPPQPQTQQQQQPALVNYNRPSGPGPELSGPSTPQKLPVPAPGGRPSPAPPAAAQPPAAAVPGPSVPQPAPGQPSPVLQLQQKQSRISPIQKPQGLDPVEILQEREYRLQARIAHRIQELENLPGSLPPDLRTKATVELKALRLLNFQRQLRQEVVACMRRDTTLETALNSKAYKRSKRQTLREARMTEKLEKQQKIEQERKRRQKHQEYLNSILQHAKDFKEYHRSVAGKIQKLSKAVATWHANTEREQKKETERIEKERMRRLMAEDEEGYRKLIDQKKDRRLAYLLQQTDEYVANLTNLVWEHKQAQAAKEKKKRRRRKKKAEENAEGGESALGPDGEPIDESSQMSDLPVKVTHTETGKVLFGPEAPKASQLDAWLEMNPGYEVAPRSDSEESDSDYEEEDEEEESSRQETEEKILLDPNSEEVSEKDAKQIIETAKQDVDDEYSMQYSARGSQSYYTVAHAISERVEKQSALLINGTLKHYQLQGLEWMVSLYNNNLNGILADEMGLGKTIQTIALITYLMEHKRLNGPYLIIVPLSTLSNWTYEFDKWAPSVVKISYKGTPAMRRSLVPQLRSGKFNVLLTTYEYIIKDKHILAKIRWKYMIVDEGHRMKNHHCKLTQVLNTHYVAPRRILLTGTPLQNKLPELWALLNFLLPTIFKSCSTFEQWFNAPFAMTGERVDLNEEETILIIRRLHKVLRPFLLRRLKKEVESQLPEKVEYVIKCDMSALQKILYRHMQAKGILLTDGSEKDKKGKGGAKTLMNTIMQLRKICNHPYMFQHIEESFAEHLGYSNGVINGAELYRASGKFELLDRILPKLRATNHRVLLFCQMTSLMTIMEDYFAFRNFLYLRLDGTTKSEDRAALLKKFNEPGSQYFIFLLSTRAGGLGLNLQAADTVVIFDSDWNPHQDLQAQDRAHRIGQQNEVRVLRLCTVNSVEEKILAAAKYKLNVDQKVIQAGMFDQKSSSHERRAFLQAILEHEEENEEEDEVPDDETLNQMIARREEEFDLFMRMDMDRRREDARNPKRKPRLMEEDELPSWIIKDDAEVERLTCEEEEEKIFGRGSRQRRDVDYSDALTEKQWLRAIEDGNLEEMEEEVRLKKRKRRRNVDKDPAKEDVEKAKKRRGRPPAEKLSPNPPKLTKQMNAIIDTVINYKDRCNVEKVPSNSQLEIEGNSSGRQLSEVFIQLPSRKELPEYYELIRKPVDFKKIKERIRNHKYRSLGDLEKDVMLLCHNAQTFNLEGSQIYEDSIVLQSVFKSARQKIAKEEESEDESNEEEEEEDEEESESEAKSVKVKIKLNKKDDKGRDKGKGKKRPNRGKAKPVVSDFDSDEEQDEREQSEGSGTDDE

SMILES	IC50 (BRM)	IC50 (BRG-1)
CC(C)(C)n1ccc(C(=O)NCC(=O)Nc2nc(-c3cccc(N4CCC5(CCCCO5)C4)n3)cs2)c1 (stereo not shown) [Compound 631]	> 10 nM	> 10 nM
CC(C)(C)n1ccc(C(=O)NCC(=O)Nc2nc(-c3cccc(N4CCc5ccncc5C4)n3)cs2)c1 [Compound 632]	> 10 nM	> 10 nM
CC(C)(C)n1ccc(C(=O)NCC(=O)Nc2nc(-c3cccc(N4CCC(OC(F)F)C4)n3)cs2)c1 (stereo not shown) [Compound 633]	> 10 nM	> 10 nM
CC(C)(C)n1ccc(C(=O)NCC(=O)Nc2nc(-c3cccc(N4CCC5(CC5)C4)n3)cs2)c1 [Compound 634]	> 10 nM	> 10 nM
CC(C)(C)n1ccc(C(=O)NCC(=O)Nc2nc(-c3cccc(N4CC[C@@H](N5CCOCC5)[C@@H](F)C4)n3)cs2)c1 [Compound 635]	> 100 nM	> 100 nM
CC(C)(C)n1ccc(C(=O)NCC(=O)Nc2nc(-c3cccc(N4CCCC(N5CCCC5)C4)n3)cs2)c1 (stereo not shown) [Compound 636]	> 10 nM	> 10 nM
Cn1cc2c(n1)CCN(c1cccc(-c3csc(NC(=O)CNC(=O)c4ccn(C(C)(C)C)c4)n3)n1)C2 [Compound 637]	> 10 nM	> 10 nM
CC(C)(C)n1ccc(C(=O)NCC(=O)Nc2nc(-c3cccc(N4CCN5CCOCC5C4)n3)cs2)c1 (stereo not shown) [Compound 638]	> 100 nM	> 100 nM
CCC(=O)N1CCN(c2cccc(-c3csc(NC(=O)CNC(=O)c4ccn(C(C)(C)C)c4)n3)n2)CC1 [Compound 639]	> 10 nM	> 10 nM
CN(C)C(=O)N1CCN(c2cccc(-c3csc(NC(=O)CNC(=O)c4ccn(C(C)(C)C)c4)n3)n2)CC1 [Compound 640]	> 10 nM	> 100 nM
CN1C(=O)CC[C@H]2CN(c3cccc(-c4csc(NC(=O)CNC(=O)c5ccn(C(C)(C)C)c5)n4)n3)CC[C@H]21 [Compound 641]	> 100 nM	> 100 nM
CCOC1CCN(c2cccc(-c3csc(NC(=O)CNC(=O)c4ccn(C(C)(C)C)c4)n3)n2)CC1 [Compound 642]	> 100 nM	> 100 nM
CN1C(=O)CC[C@@H]2CN(c3cccc(-c4csc(NC(=O)CNC(=O)c5ccn(C(C)(C)C)c5)n4)n3)CC[C@H]21 [Compound 643]	> 10 nM	> 10 nM
CC(C)(C)n1ccc(C(=O)NCC(=O)Nc2nc(-c3cccc(N4CC5(COC5)C4)n3)cs2)c1 [Compound 644]	> 100 nM	> 100 nM

Results, then the compound that gave them:

IC50 (BRM)	IC50 (BRG-1)	SMILES
> 10 nM	> 10 nM	CC(C)(C)n1ccc(C(=O)NCC(=O)Nc2nc(-c3cccc(N4CCCC5(CCOCC5)C4)n3)cs2)c1 [Compound 645]
> 100 nM	> 100 nM	CC(C)(C)n1ccc(C(=O)NCC(=O)Nc2nc(-c3cccc(N4CC(F)(F)C4)n3)cs2)c1 [Compound 646]
> 10 nM	> 10 nM	CC(C)(C)n1ccc(C(=O)NCC(=O)Nc2nc(-c3cccc(N4CC[C@@H](F)C4)n3)cs2)c1 [Compound 647]
> 100 nM	> 1000 nM	C[C@@]1(n2ccc(C(=O)NCC(=O)Nc3nc(-c4cccc(N5CCC5)c4)cs3)c2)CC1(F)F [Compound 651]
> 10 nM	> 10 nM	C[C@]1(n2ccc(C(=O)NCC(=O)Nc3nc(-c4cccc(N5CCC5)c4)cs3)c2)CC1(F)F [Compound 652]
> 10 nM	> 10 nM	CC(C)(C)n1ccc(C(=O)NCC(=O)Nc2nc(-c3cccc(N4CCCC5(COC5)C4)n3)cs2)c1 [Compound 653]
> 10 nM	> 10 nM	C[C@H]1CCN(c2cccc(-c3csc(NC(=O)CNC(=O)c4ccn(C(C)(C)C)c4)n3)n2)C1 [Compound 654]
> 100 nM	> 100 nM	Cc1nnc2n1CCN(c1cccc(-c3csc(NC(=O)CNC(=O)c4ccn(C(C)(C)C)c4)n3)n1)C2 [Compound 655]
> 100 nM	> 100 nM	CC(C)(C)n1ccc(C(=O)NCC(=O)Nc2nc(-c3cccc(N4CCC(S(C)(=O)=O)CC4)n3)cs2)c1 [Compound 656]
